Test results from patent US9068970B2, “Efficient and effective supplement screening for the development of chemically defined media in cell culture” (Abbvie Inc., priority 2010, dated 2015).

How the values were obtained:
Format in all cases: cell-based
[1] = system: recombinant IgG producing Chinese Hamster Ovary cell line (CHO cell line #1); assay: 24-well plate media supplement screening: harvest titer (HPLC, Poros A affinity column); settings: HTS experiments; CDM #1, relative to unsupplemented control
Experimental: (§1) 24-well plates were utilized at a working volume of 1.5 mL per well to serve as the platform for media supplement screening. An in-house, base chemically defined media (CDM #1) was used as the basal media for the purposes of the experiments. A recombinant IgG producing Chinese Hamster Ovary cell line (CHO cell line #1) was used for the media supplement screening phase of the experiments.
All 24-well plate screening experiments were designed using JMP7 commercially available statistics software (Cary, N.C.) using custom experimental options. Six individual media supplement screening experiments were performed to test over a hundred different supplements in statistically designed experiments and in a serial fashion. […] Supplement solutions were manually pipetted into the respective plate wells using concentrated, sterile stock solutions. The comprehensive list of media supplements evaluated for cell culture process improvement is shown below in Table 2:
(§2) Two cell culture performance indicators were measured in the high-throughput screening experiments: peak viable cell density and harvest titer. Time point samples were withdrawn from each of the respective plate wells on Days 6, 7, and 8 post inoculation and measured for their respective viable cell densities spectrophotometrically via the CellTiter 96 AQueous Solution Cell Proliferation Assay Kits™ (Promega, Madison, Wis.). Harvest Titer measurements were conducted via high performance liquid chromatography (HPLC) with a Poros A™ affinity column (Applied Biosystems, Foster City, Calif.). All experimental wells supplemented with a particular combination of media compounds were compared to an unsupplemented control, with the results expressed as relative values relative to the control.
(§3) Two cell culture performance indicators were measured in the high-throughput screening experiments as well as media verification experiments; peak viable cell density (VCD) and harvest titer. […] A few days after the last cell count measurement sample the plates were centrifuged and the supernatant was collected and stored at −80° C. for future analysis. Harvest titer measurements were conducted via high performance liquid chromatography (HPLC) with a Poros A™ affinity column (Applied Biosystems, Foster City, Calif.). All experimental wells supplemented with a particular combination of media compounds were compared to an unsupplemented control, with the results expressed as values relative to the control. For the media verification experiments in larger-scale shaker and spinner flasks, viable cell density and viability were measured via Cedex automated cell counters (Roche Applied Science, Indianapolis, Ind.). Harvest titer measurements were similarly measured via HPLC.
(§4) Standard Analysis of Variance (ANOVA) was used to measure the significance of individual supplements and their respective interactions towards the resulting cell culture technique performance. Individual analyses were conducted on both peak viable cell density and harvest titer for each of the respective screening experiments. Three different levels of each media supplement were used in these experiments: unsupplemented (Level 1), lightly supplemented (Level 2), and heavily supplemented (Level 3). […] The optimization subroutine intrinsic to the statistics software was used to analyze the screening dataset determine the identity of a high performance media blend. It is important to note that the selection method is a mathematical exercise which can lead to multiple blends identified as having the highest performance parameters, and the results are highly dependent on the initial first guess.
The aforementioned supplements were evaluated for improvements in cell culture technique performance.

[2] = system: recombinant IgG producing Chinese Hamster Ovary cell line (CHO cell line #1); assay: Supplement screening: process performance (peak VCD and/or harvest titer) by inspectional/statistical analysis; settings: univariate analysis of varying supplement concentrations
Experimental: as §4, with “guess. Three particular high performance blends were identified for further evaluation: […] The supplements whose relative concentrations supported a distinct pattern of either increasing or decreasing process performance were categorized into the clustered classification. […] These supplements were either compounds or groups of similar compounds such as polyamines, essential amino acids, and vitamins.” for “guess.”

[3] = system: recombinant IgG producing Chinese Hamster Ovary cell line (CHO cell line #1); assay: 24-well plate media supplement screening: peak viable cell density (CellTiter 96 AQueous); settings: HTS experiments; CDM #1, relative to unsupplemented control
Experimental: as §1
All 24-well plate screening experiments were designed using JMP7 commercially available statistics software (Cary, N.C.) using custom experimental options. Six individual media supplement screening experiments were performed to test over a hundred different supplements in statistically designed experiments and in a serial fashion. All screening experiments were performed at […] cultured at 210 rpm on a shaker table in a 5% humidified CO2 incubator. Gas permeable, rayon film plate covers (VWR International, Radnor, Pa., Catalog #60941-086) were employed as necessary to provide a sterile barrier between the well plates, the plastic plate cover, and the culture atmosphere. Supplement solutions were manually pipetted into the respective plate wells using concentrated, sterile stock solutions. The comprehensive list of media supplements evaluated for cell culture process improvement is shown below in Table 2:
as §2, §3, §4

[4] = system: recombinant IgG producing Chinese Hamster Ovary cell line (CHO cell line #1); assay: JMP7 statistical identification of high performance media supplementation from a 15-supplement screening experiment; settings: for Concentration Target (Range) for Increase of Harvest Titer / Concentration Target (Range) for Increase of Peak VCD / Concentration Target (Range) for Increase of Peak VCD and Harvest Titer: predicted amount for addition into the unsupplemented control media
Experimental: as §4
Fifteen of these supplements, or groups of supplements, were screened in a separate statistically designed experiment for the final determination of high performance media blends for the maximization of peak VCD, harvest titer, and both of these variables simultaneously.
The JMP7 statistical software program was further used to identify the high performance media supplementation for maximizing peak VCD, harvest titer, and both simultaneously.

[5] = range given, variability in culture volumes

| Molecule | Effect on Harvest Titer [1] | Process Performance Pattern [2] | Effect on Peak VCD [3] | Concentration Target (Range) for Increase of Harvest Titer [4] | Concentration Target (Range) for Increase of Peak VCD [4] | Concentration Target (Range) for Increase of Peak VCD and Harvest Titer [4] | Concentration Range for Increase of Harvest Titer [4, 5] | Concentration Range for Increase of Peak VCD [4, 5] | Concentration Range for Increase of Peak VCD and Harvest Titer [4, 5] |
| --- | --- | --- | --- | --- | --- | --- | --- | --- | --- |
| [Cl-].[Cl-].[Zn+2] [Zinc chloride] | Increase | Clustered | No change | +5.46 × 10^−3 g/L | +2.05 × 10^−3 g/L | +5.12 × 10^−3 g/L | (4.85 × 10^−3-6.22 × 10^−3) g/L | (1.82 × 10^−3-2.33 × 10^−3) g/L | (4.54 × 10^−3-5.83 × 10^−3) g/L |
| OC1C(O)C(O)C(O)C(O)C1O (centres unmarked) [i-inositol] | No change | Wide dispersal | No change | +0.05 (0.05-0.06) g/L | +0.11 (0.09-0.12) g/L | +0.19 (0.17-0.22) g/L | – | – | – |
| OC[C@H]1O[C@@H]2O[C@H]3[C@H](O)[C@@H](O)[C@@H](O[C@H]4[C@H](O)[C@@H](O)[C@@H](O[C@H]5[C@H](O)[C@@H](O)[C@@H](O[C@H]6[C@H](O)[C@@H](O)[C@@H](O[C@H]7[C@H](O)[C@@H](O)[C@@H](O[C@H]1[C@H](O)[C@H]2O)O[C@@H]7CO)O[C@@H]6CO)O[C@@H]5CO)O[C@@H]4CO)O[C@@H]3CO [α-cyclodextrin] | Increase | Wide dispersal | Increase | 0 g/L | +0.16 (0.14-0.18) g/L | 0 g/L | – | – | – |
| OC[C@H]1O[C@@H]2O[C@H]3[C@H](O)[C@@H](O)[C@@H](O[C@H]4[C@H](O)[C@@H](O)[C@@H](O[C@H]5[C@H](O)[C@@H](O)[C@@H](O[C@H]6[C@H](O)[C@@H](O)[C@@H](O[C@H]7[C@H](O)[C@@H](O)[C@@H](O[C@H]8[C@H](O)[C@@H](O)[C@@H](O[C@H]1[C@H](O)[C@H]2O)O[C@@H]8CO)O[C@@H]7CO)O[C@@H]6CO)O[C@@H]5CO)O[C@@H]4CO)O[C@@H]3CO [β-cyclodextrin] | Increase | Wide dispersal | Increase | 0 g/L | +0.16 (0.14-0.18) g/L | 0 g/L | – | – | – |
| Calcium pantothenate | No change | Wide dispersal | Increase | 0 g/L | +0.15 (0.13-0.17) g/L | 0 g/L | – | – | – |
| Manganese chloride | No change | Wide dispersal | Increase | +1.07 × 10^−4 g/L | +6.67 × 10^−5^ g/L | 0 g/L | (9.46 × 10^−5-1.21 × 10^−4) g/L | (5.91 × 10^−5-7.59 × 10^−5) g/L | – |
